Patent US5985922A, “Amino acid derivatives and active oxygen-resisting agent” (Ajinomoto Co., Inc., priority 1997, dated 1999)

Tests used:
lipid peroxidation = experiment: Test for an Active Oxygen Resistance (inhibition of lipid peroxidation in mouse brain homogenate); assay type: biochemical; settings: whole brain homogenate, C57 black mouse, 20-mM phosphate buffer; 37° C., 30 minutes
Experimental: The test was conducted according to the method described in Method in Enzymol., vol. 52, p. […] The outline of the test method was that a homogenized 20-mM phosphate buffer of the whole brain of a C57 black mouse was prepared, a test substance was added thereto, and an absorbance of the mixture was measured.
Percent peroxidation inhibition (%)--
A1 : Absorbance in the addition of the test compound
A2 : Absorbance before the addition of the test compound
A3 : Absorbance when the test compound is not added, nor is the heating at 37° C. for 30 minutes conducted.

[1] = Test for a Solubility (oil solvents, 1% by weight); assay type: physicochemical
Experimental: The solubility in the solvent shown in Table 2 when the concentration was 1% by weight was evaluated.

| SMILES | Percent inhibition of lipid peroxidation (lipid peroxidation) [%] | Solubility in liquid paraffin [1] | Solubility in olive oil [1] |
| --- | --- | --- | --- |
| CCCCCCCCCCCCOC(=O)[C@H](C)NCc1ccccc1O [Synthesis Example 1, N-(2-hydroxybenzyl)-L-alanine lauryl ester] | 39 | soluble | soluble |
| O=C(O)CC(O)(CC(=O)O)C(=O)O [Citric acid, reference compound] | -15 |  |  |
| CCCCCCCCCCCCOC(=O)CNCc1ccccc1O [Synthesis Example 3, N-(2-hydroxybenzyl)glycine lauryl ester] |  | soluble | soluble |
| O=C1O[C@H]([C@@H](O)CO)C(O)=C1O [Vitamin C, reference compound] | -23 |  |  |
| O=C(O)CNCc1ccccc1O [N-(2-hydroxybenzyl)-L-glycine, reference compound] |  | insoluble | insoluble |
| C[C@H](NCc1ccccc1O)C(=O)O [N-(2-hydroxybenzyl)-L-alanine, reference compound] | 6 | insoluble | insoluble |
| CCCCCCCCCCCCNC(=O)CNCc1ccccc1O [Synthesis Example 7, N-(2-hydroxybenzyl)glycine laurylamide] |  | gelling | soluble |
| CCCCCCCCCCCCCCCCCCOC(=O)[C@H](C)NCc1ccccc1O [Synthesis Example 2, N-(2-hydroxybenzyl)-L-alanine stearyl ester] | 16 | soluble | soluble |
| CCCCCCCCCCCCNC(=O)[C@H](Cc1ccccc1)NCc1ccccc1O [Synthesis Example 8, N-(2-hydroxybenzyl)phenylalanine laurylamide] |  | gelling | soluble |
| O=C(O)[C@H](Cc1ccccc1)NCc1ccccc1O [N-(2-hydroxybenzyl)-L-phenylalanine, reference compound] |  | insoluble | insoluble |
| CCCCCCCCCCCCNC(=O)[C@H](C)NCc1ccccc1O [Synthesis Example 5, N-(2-hydroxybenzyl)-L-alanine laurylamide] | 80 | gelling | soluble |
| CCCCCCCCCCCCCCCCCCNC(=O)[C@H](C)NCc1ccccc1O [Synthesis Example 6, N-(2-hydroxybenzyl)-L-alanine stearylamide] | 17 | gelling | soluble |
| CCCCCCCCCCCCOC(=O)[C@H](Cc1ccccc1)NCc1ccccc1O [Synthesis Example 4, N-(2-hydroxybenzyl)-L-phenylalanine lauryl ester] |  | soluble | soluble |
